Data set [1] concerns A7R5 (rat aorta smooth muscle) cells. In words: Intracellular Ca2+ measurements, Fluo-4 NW Calcium Assay Kit, KCl-induced [Ca2+]i increase. The settings on record: for IC50: Rattus norvegicus, A7R5, read-out: Ca^2+ A7R5, IC50; for Ca^2+ antagonist effect compared with Verapamil: relative to Verapamil; for Ca^2+ antagonist effect compared with Verapamil / Ca^2+ A7R5, IC50: A7R5 cells; for Ca^2+ A7R5, IC50: KCl (50 mM) induced [Ca2+]i increase, compounds 0.8 to 100 μM. Format: cell-based. How it is done: Changes in intracellular [Ca^2+] concentration were studied using A7R5 (rat aorta smooth muscle) cells and Fluo-4 NW Calcium Assay Kit (“Invitrogen”, Sweden) according to manufacturer's instructions.
Changes in intracellular [Ca^2+]i concentration were studied using Fluo-4 NW Calcium Assay Kit (“Invitrogen”, Sweden) accordingly to manufacturer's instructions. The A7R5 (rat aorta smooth muscle) cells were grown at 37° C. in a humidified atmosphere with 5% CO2/95% air in DMEM medium containing 2 mM glutamine and supplemented with 10% FBS. The cells were seeded into 96 well plate at 10,000 cells/well and incubated for 72 h. The cells were loaded with […] for 45 min. The Fura-4NW loaded cells were pre-incubated in the dark for 15 minutes with tested compounds at concentrations from 0.8 to 100 μM. Then A7R5 cells were pre-treated with 1.5 mM CaCl2 for 5 minutes and KCl (50 mM) was added to A7R5 cells to induce [Ca^2+]i increase. Amlodipine, the well-known calcium channel inhibitor was used as the positive control.

Data set [2] can be described thus: Basal toxicity test, neutral red, alternative LD50 calculated from IC50. Conditions: mouse, LD50, alternative LD50 calculated by formula from IC50 in NIH 3T3 cells. How it is done:
(§1) A low therapeutic index of chemotherapy agents is due to affecting not only cancer formation but also normal cells.
(§2) 9,000 NIH 3T3 cells/well were placed into 96-well plates for 24 h and then exposed to the test compound over a range of eight concentration (1-1000 μg/ml) for 24 h. Upon that, the cells were incubated with the neutral red dye for 4 h and then OD was determined at 540 nm. […] The IC50 values were calculated using the program Graph Pad Prism® 4.0

The test system of data set [3] is NIH 3T3 (normal mouse fibroblasts). The data set is described as above. Conditions: alternative LD50 calculated by formula from IC50 in NIH 3T3 cells, 24 h. The method, then:
as §1, §2

For the next data set, the target named is P-glycoprotein (P-gp) (Homo sapiens, UniProt P08183). In words: Measurement of P-glycoprotein activity: rhodamine 123 accumulation in MES-SA and MES-SA/Dx5 cells. The settings on record: for MDR, EC50, P-gp: rhodamine 123 accumulation, doxorubicin resistant MES-SA/Dx5 cells. How it is done:
(§3) Thieno[2,3-b]pyridines of the formula (I) were tested to reveal MDR-blocking activity.
About 50,000 cells/well of the human uterine sarcoma cell line MESSA and MES-SA/Dx5 were seeded into the 96-well plates and incubated for 24 h. The MDR modulators were incubated with the cells for 15 min. […] The EC50 values were calculated using the program Graph Pad Prism® 4.0.

The next data set deals with T1, BCRP1 (Homo sapiens, UniProt Q9UNQ0).
T1 sequence (Q9UNQ0 1-655): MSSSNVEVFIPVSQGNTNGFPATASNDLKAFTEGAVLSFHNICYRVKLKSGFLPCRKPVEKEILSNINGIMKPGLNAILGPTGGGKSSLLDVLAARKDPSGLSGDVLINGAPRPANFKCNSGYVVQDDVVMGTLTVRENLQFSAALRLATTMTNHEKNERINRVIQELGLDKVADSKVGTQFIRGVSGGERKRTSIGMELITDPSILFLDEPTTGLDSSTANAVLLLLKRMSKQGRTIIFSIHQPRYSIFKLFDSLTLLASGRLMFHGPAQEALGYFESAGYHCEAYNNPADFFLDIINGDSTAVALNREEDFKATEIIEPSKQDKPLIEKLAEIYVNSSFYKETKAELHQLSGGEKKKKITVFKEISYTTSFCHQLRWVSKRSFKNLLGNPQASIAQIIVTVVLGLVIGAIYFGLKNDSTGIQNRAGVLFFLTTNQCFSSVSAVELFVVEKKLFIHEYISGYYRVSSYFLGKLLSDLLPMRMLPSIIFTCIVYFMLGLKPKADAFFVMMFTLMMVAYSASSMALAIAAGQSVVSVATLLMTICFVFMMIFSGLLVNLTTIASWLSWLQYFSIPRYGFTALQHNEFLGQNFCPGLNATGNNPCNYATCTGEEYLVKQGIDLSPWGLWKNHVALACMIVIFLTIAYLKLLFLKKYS
In words: cell-based. The settings on record: for MDR, EC50, BCRP1: Hoechst 33342, mitoxantrone resistant MES-SA/MX2 cells. The method, then:
as §3
About 50,000 cells/well of the MESSA and MES-SA/MX2 were seeded into the 96-well plates and incubated for 24 h. The MDR modulators were incubated with the cells for 15 min. […] The EC50 values were calculated using the program Graph Pad Prism® 4.0

Another data set has as its target MRP1 (Homo sapiens, UniProt P33527). In words: cell-based. Conditions: for MDR, EC50, MRP1: calcein AM assay, DOX resistant H69AR cells. How it is done: as §3
About 60,000 cells/well of the human lung carcinoma cell line H69 and H69AR were seeded into the 96-well plates and incubated for 24 h. The compounds were incubated with the cells for 15 min. […] The EC50 values was calculated using the program Graph Pad Prism® 4.0

Sequence of MRP1 (P33527 whole entry): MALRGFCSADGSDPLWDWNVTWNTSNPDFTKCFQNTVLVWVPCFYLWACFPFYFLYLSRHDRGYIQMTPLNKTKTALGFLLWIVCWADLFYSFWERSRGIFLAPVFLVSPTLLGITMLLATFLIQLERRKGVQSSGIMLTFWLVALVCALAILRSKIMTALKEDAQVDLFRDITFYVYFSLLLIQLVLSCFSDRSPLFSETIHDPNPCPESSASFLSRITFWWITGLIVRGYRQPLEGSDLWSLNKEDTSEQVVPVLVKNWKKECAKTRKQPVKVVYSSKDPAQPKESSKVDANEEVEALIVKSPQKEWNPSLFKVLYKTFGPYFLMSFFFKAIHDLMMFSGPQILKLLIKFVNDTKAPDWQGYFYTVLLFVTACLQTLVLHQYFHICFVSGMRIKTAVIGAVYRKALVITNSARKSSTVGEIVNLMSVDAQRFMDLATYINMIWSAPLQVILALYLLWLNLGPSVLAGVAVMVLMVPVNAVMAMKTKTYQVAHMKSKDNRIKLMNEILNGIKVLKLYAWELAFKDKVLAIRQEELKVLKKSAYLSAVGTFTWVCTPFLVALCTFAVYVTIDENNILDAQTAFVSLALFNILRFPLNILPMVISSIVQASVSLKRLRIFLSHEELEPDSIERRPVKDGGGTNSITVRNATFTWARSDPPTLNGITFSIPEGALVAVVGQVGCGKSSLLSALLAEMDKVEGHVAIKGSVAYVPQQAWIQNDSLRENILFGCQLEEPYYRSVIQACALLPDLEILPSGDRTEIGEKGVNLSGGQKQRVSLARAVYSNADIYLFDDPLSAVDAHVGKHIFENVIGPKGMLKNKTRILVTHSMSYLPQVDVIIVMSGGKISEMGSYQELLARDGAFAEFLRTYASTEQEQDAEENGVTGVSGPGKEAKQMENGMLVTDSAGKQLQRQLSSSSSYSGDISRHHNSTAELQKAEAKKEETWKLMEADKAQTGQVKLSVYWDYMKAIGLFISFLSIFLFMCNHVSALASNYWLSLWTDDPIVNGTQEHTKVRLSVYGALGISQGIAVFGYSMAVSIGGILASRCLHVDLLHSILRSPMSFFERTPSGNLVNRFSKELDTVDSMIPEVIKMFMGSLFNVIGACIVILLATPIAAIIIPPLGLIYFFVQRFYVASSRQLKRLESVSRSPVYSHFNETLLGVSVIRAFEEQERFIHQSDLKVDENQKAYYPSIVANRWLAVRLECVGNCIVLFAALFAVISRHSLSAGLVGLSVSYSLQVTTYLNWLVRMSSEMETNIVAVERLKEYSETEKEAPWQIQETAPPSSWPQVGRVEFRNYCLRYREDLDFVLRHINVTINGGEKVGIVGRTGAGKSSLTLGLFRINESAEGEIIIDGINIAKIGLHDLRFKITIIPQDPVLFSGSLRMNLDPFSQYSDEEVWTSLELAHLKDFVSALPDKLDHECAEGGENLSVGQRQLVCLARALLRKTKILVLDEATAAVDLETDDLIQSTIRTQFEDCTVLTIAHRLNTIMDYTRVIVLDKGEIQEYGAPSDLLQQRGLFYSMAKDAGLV
Sequence of P-glycoprotein (P-gp) (P08183 whole entry): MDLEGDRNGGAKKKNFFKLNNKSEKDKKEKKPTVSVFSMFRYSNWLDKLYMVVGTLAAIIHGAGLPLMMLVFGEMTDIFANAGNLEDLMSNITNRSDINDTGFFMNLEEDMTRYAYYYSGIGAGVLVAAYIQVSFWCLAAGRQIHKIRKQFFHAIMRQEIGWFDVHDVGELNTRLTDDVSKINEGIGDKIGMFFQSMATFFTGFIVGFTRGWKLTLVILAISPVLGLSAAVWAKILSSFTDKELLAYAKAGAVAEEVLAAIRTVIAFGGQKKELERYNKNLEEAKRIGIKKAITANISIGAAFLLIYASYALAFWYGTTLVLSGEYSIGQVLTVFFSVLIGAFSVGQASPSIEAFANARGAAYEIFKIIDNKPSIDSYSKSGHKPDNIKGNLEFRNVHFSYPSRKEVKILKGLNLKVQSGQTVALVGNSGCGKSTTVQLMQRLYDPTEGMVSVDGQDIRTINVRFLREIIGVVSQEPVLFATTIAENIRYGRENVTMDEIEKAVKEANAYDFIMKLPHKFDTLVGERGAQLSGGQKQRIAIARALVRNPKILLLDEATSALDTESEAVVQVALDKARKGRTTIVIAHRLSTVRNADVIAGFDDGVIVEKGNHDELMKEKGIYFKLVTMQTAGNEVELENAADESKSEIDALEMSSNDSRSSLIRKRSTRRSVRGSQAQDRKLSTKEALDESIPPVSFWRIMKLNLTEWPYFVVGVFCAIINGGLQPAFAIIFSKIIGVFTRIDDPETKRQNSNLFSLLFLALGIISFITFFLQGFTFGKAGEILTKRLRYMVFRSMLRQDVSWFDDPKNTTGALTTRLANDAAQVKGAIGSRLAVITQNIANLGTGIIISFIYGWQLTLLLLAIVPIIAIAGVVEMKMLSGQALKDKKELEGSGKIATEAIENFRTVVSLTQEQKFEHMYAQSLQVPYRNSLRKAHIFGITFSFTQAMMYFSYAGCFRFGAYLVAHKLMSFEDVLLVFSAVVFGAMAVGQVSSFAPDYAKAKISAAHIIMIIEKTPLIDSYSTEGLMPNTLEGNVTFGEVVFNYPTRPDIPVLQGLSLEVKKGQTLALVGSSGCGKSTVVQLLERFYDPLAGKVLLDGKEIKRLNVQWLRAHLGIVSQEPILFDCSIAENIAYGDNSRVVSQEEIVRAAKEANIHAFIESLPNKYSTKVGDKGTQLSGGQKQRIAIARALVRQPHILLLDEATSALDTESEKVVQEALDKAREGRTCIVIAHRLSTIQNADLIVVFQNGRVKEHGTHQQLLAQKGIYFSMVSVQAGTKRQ

Broadly, the IC50 is the concentration that inhibits the measured activity by half. The term LD50 denotes the dose at which mortality reaches 50%. With `COC(=O)c1c(C)nc2sc(C(=O)c3ccc(OC)cc3)c(N)c2c1-c1ccc(OC)c(OC)c1` [Compound 6, 3-Amino-4-(3,4-dimethoxyphenyl)-2-(4-methoxybenzoyl)-6-methyl-thieno[2,3-b]-pyridine-5-carboxylic acid methyl ester], in data set [1], the IC50 was 6 ± 0.8 µM and the “Ca^2+ antagonist effect compared with Verapamil” value was “more than ten times lower”. The LD50 at 24 h in data set [2] is above 2000 mg/kg. Also, the LD50 in data set [3] is recorded as 2808 mg/kg.

Take `CCOC(=O)c1c(C)nc2sc(C(=O)c3ccc(OC)cc3)c(N)c2c1-c1cc(OC)c(OC)c(OC)c1` [Compound 24, 3-Amino-2-(4-methoxybenzoyl)-6-methyl-4-(3,4,5-trimethoxyphenyl)thieno[2,3-b]-pyridine-5-carboxylic acid ethyl ester]: in data set [1], the IC50 was found to be 19 ± 3 µM and the “Ca^2+ antagonist effect compared with Verapamil” value is reported as “more than ten times lower”. In data set [2], the LD50 at 24 h is above 2000 mg/kg. The LD50 in data set [3] is on record as above 2000 mg/kg.

`CCOC(=O)c1c(C)nc2sc(C(=O)c3ccc(OC)cc3OC)c(N)c2c1-c1cc(OC)c(OC)c(OC)c1` [Compound 25, 3-Amino-2-(2,4-dimethoxybenzoyl)-6-methyl-4-(3,4,5-trimethoxyphenyl)-thieno[2,3-b]pyridine-5-carboxylic acid ethyl ester]: in data set [1], the IC50 was 46 ± 1.4 µM and the “Ca^2+ antagonist effect compared with Verapamil” value was “more than ten times lower”. Further, the 50% lethal dose (LD50) at 24 h in data set [2] was above 2000 mg/kg. Besides, in data set [3], the LD50 is above 2000 mg/kg.

The EC50 is the concentration giving half of the maximal effect. On to `COC(=O)c1c(C)nc2sc(C(=O)c3ccc4ccccc4c3)c(N)c2c1-c1cc(OC)c(OC)c(OC)c1` [Compound 41, 3-Amino-6-methyl-2-(naphthalene-2-carbonyl)-4-(3,4,5-trimethoxyphenyl)-thieno[2,3-b]pyridine-5-carboxylic acid methyl ester], for which the half-maximal effective concentration (EC50) worked out at 10.5 ± 0.7 µM on P-glycoprotein (P-gp) and 0.8 ± 0.2 µM at BCRP1. Also, the IC50 in data set [1] turned out to be 18 ± 1.4 µM. For the same compound, the median lethal dose (LD50) at 24 h in data set [2] was above 2000 mg/kg. In addition, on MRP1, the “MDR, EC50, MRP1” value was “No effect”.

Consider `CCOC(=O)c1c(C)nc2sc(C(=O)c3ccc(OC)cc3)c(N)c2c1-c1ccc2c(c1)OCO2` [Compound 42, 3-Amino-4-(benzo[1,3]dioxol-5-yl)-2-(4-methoxybenzoyl)-6-methylthieno[2,3-b]-pyridine-5-carboxylic acid ethyl ester], for which the EC50 was determined as 20.4 ± 0.1 µM on P-glycoprotein (P-gp), 2.3 ± 0.4 µM at BCRP1 and 24.8 ± 1.2 µM at MRP1. Also, in data set [1], the IC50 came to 18 ± 1 µM. In data set [2], the LD50 at 24 h is 2010 mg/kg.

As to `CCOC(=O)c1c(C)nc2sc(C(=O)c3ccc(OC)cc3)c(N)c2c1-c1ccco1` [Compound 43, 3-Amino-4-(furan-2-yl)-2-(4-methoxybenzoyl)-6-methylthieno[2,3-b]pyridine-5-carboxylic acid ethyl ester], the “MDR, EC50, P-gp” value on P-glycoprotein (P-gp) is reported as “No effect”. Further, at BCRP1, the “MDR, EC50, BCRP1” value was “No effect”. The “MDR, EC50, MRP1” value on MRP1 is “No effect”.

Turning to `COc1cc(-c2cc(-c3cc(OC)c(OC)c(OC)c3)c3c(N)c(C(=O)c4ccc(Cl)cc4)sc3n2)cc(OC)c1OC` [Compound 47, 3-Amino-4,6-bis-(3,4,5-trimethoxyphenyl)-2-(4-chlorobenzoyl)thieno[2,3-b]-pyridine], the EC50 at P-glycoprotein (P-gp) was 31.4 ± 0.8 µM; at BCRP1, 14.5 ± 3.5 µM. Also, in data set [2], the LD50 at 24 h is above 2000 mg/kg. For the same compound, the “MDR, EC50, MRP1” value at MRP1 is “No effect”.

With `COc1ccc(C(=O)c2sc3nc(-c4cc(OC)c(OC)c(OC)c4)cc(-c4cc(OC)c(OC)c(OC)c4)c3c2N)cc1` [Compound 48, 3-Amino-4,6-bis-(3,4,5-trimethoxyphenyl)-2-(4-methoxybenzoyl)thieno[2,3-b]-pyridine], at P-glycoprotein (P-gp), the 50% effective concentration (EC50) came out at 32.5 ± 2.1 µM. Further, the “Ca^2+ A7R5, IC50” value in data set [1] is given as “No effect”. Further, in data set [2], the LD50 at 24 h is 3080 mg/kg. The “MDR, EC50, BCRP1” value on BCRP1 is recorded as “No effect”. The “MDR, EC50, MRP1” value on MRP1 is “No effect”.

Take `CN(C)C(=O)CCSC(SCCC(=O)O)c1cccc(/C=C/c2ccc3ccc(Cl)cc3n2)c1` (stereo not shown) [MK-571, reference compound]: the “MDR, EC50, P-gp” value at P-glycoprotein (P-gp) is listed as “No effect”. For the same compound, the “Ca^2+ A7R5, IC50” value in data set [1] is listed as “No effect”. Also, the 50% lethal dose (LD50) at 24 h in data set [2] was 752 mg/kg.

The values are drawn from patent publication US9908893B2 (Latvian Institute of Organic Synthesis, priority 2013, dated 2018).
